Results: US20250320557A1, “USE OF ABCF1 IN METHODS OF DIAGNOSING AND MONITORING INFLAMMATORY AND/OR AUTOIMMUNE DISEASE” (MYND Life Sciences Inc., priority 2021, published 2025)

What was measured:
[1] = system: ABCF1; experiment: qPCR of ABCF1 transcription in macrophage cell line RAW264.7 (dose response / time course); assay type: cell-based; conditions: 10 nM, 100 nM, 500 nM, 2 hours, normalized against GAPDH
Experimental: FIG. 3 illustrates the effect of psylocibin, psylocin and their analogs on ABCF1 transcription in a macrophage cell line. Briefly, the Macrophage cell line RAW264.7 (ATCC) were grown to 80% confluency in growth media (DMEM+ 10% FBS+ glutamine). Dilutions of psylocibin, psylocin and their analogs were made at desired final concentrations for a Dose response experiment. The concentrations' used for this experiment are: 10 nM, 100 nM, 500 nM for Psilocin, Psylocibin, 4-Acetoxy-N, N-dimthyltryptamine, O-Acetyl Psilocin Fumerate, and 4-acetoxyindole. The cells were incubated for 2 hours and then harvested for total RNA, which was extracted for real time RT-PCR specific for ABCF1. Untreated cells were used as negative control and Escitalopram at 0.3 mM was used as a positive control to activate ABCF1 expression for all the experiments. ES=escitalopram; PSYB=Psylocibin; PSIC=Psilocin; DMT=4-Acetoxy-N, N-dimthyltryptamine; APF=O-Acetyl Psilocin Fumerate, and AOI=4-acetoxyindole.
• 1. Macrophage cell line RAW264.7 (ATCC) were grown to 80% confluency in growth media (DMEM+10% FBS+glutamine). • 2. Dilutions of the drugs were made at desired final concentrations for a Dose response experiment. […]
• 1. […] Normalized against the expression level of GAPDH, the fold change expression level of ABCF1 was calculated and tabulated for all treatment conditions.

[2] = system: ABCF1; conditions: peripheral blood mononuclear cells of patients responding to treatment; cited from earlier work
[3] = system: IL-4; experiment: real time RT-PCR for IL-4 in RAW macrophages treated with Escitalopram; assay type: cell-based; conditions: macrophage cell line (RAW); 0.3 mM Escitalopram, 1 hour; normalized to housekeeping gene, DMSO control
Experimental: (§1) FIG. 1 illustrates that Escitalopram induces ABCF1 in a Macrophage cell line: RAW macrophages were plated at 1×10^5 cells/well and cultured for 2 days. The cells were incubated with 0.3 mM Escitalopram for 1 hour, and then harvested for total RNA, which was extracted for real time RT-PCR specific for ABCF1 and IL-4. CT values were normalized with CT value for the housekeeping gene from the DMSO control. The difference in the expression after drug treatment is consistent with polarization towards an M2-like phenotype (data were consistent in 3 separate experiments).

[4] = system: ABCF1; experiment: real time RT-PCR for ABCF1 in RAW macrophages treated with Escitalopram; assay type: cell-based; conditions: 0.3 mM Escitalopram, 1 hour
Experimental: as §1

| SMILES | effect on ABCF1 transcription [1] | ABCF1 transcription in PBMCs [2] | induction of IL-4 [3] | ABCF1 induction (in words) ([4]; RAW macrophages) | induction of ABCF1 ([4]; macrophage cell line (RAW), normalized to housekeeping gene, DMSO control) |
| --- | --- | --- | --- | --- | --- |
| CN(C)CCc1c[nH]c2cccc(O)c12 [psylocin, Psilocin] | upregulate ABCF1 transcription |  |  |  |  |
| CN(C)CCc1c[nH]c2cccc(OP(=O)(O)O)c12 [psylocibin, Psylocibin] | upregulate ABCF1 transcription |  |  |  |  |
| CN(C)CCC[C@@]1(c2ccc(F)cc2)OCc2cc(C#N)ccc21 [Escitalopram] |  | increased the transcription of a single gene: ABCF1 | approximately 5 fold | induces ABCF1 | approximately 20 fold |
